Results reported in patent publication US8822503B2, “2-pyridone compounds” (Taisho Pharmaceutical Co., Ltd, priority 2009, dated 2014).

biological target: T1, human liver GK (Homo sapiens, UniProt P35557); assay: GK activation test; assay type: biochemical; settings: test compound concentration needed to activate 50% of maximum activation ability; 4 mM 14C-labeled glucose, 2 mM ATP, room temperature, 20 minutes
T1 construct: GST (glutathione S-transferase) (N); made in house; host or cells: E. coli
T1 sequence (P35557 1-466 isoform P35557-2): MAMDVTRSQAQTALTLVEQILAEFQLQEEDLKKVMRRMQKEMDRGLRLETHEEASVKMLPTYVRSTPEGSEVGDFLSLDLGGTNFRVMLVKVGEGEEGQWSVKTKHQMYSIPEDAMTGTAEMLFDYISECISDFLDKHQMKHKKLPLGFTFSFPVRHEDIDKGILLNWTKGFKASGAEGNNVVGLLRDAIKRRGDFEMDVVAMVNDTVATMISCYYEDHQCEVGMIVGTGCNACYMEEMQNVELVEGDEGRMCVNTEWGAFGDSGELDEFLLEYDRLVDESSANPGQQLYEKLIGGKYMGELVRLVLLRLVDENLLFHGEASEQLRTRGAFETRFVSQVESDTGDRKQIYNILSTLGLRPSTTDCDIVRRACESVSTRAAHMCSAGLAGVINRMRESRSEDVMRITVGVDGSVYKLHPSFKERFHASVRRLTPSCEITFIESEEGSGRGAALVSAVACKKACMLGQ
Method in brief: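 GST-tagged human liver GK from E. coli (0.24 μg/well) with 4 mM 14C-glucose, 2 mM ATP in Hepes-KOH pH 7.1, KCl, MgCl2, DTT, 1% DMSO, 20 min room temperature. Labeled glucose 6-phosphate captured on anion resin, eluted and counted. EC50 = concentration giving half of maximal activation.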

Row | SMILES | EC50
1 | CN(C)C(=O)c1ccc(/C(=C\[C@H]2CCC(=O)N2)c2ccc(Cl)c(=O)[nH]2)cc1 [Example 4-161, 4-{(E)-1-(5-Chloro-6-oxo-1,6-dihydropyridin-2-yl)-2-[(2R)-5-oxopyrrolidin-2-yl]ethenyl}-N,N-dimethylbenzamide] | 3000 to 10000 nM
2 | CC(C)(C)c1ccc(/C(=C\[C@H]2CCC(=O)N2)c2ccc(Cl)c(=O)[nH]2)c(O)c1 [Example 4-162, 6-{(E)-1-(4-tert-Butyl-2-hydroxyphenyl)-2-[(2R)-5-oxopyrrolidin-2-yl]ethenyl}-3-chloropyridin-2(1H)-one] | 10 to 500 nM
3 | CC(=O)Nc1cccc(/C(=C\[C@H]2CCC(=O)N2)c2ccc(Cl)c(=O)[nH]2)c1 [Example 4-163, N-(3-{(E)-1-(5-Chloro-6-oxo-1,6-dihydropyridin-2-yl)-2-[(2R)-5-oxopyrrolidin-2-yl]ethenyl}phenyl)acetamide] | 3000 to 10000 nM
4 | CC(C)(C)c1ccc(/C(=C\[C@H]2CCC(=O)N2)c2ccc(OC(F)F)c(=O)[nH]2)cc1 [Example 4-165, 6-{(E)-1-(4-tert-Butylphenyl)-2-[(2R)-5-oxopyrrolidin-2-yl]ethenyl}-3-(difluoromethoxy)pyridin-2(1H)-one] | 10 to 500 nM
5 | CCCOc1ccc(/C(=C/[C@H]2CCC(=O)N2)c2ccc(C(C)(C)C)cc2)[nH]c1=O [Example 4-167, 6-{(E)-1-(4-tert-Butylphenyl)-2-[(2R)-5-oxopyrrolidin-2-yl]ethenyl}-3-propoxypyridin-2(1H)-one] | 500 to 3000 nM
6 | O=C1CC[C@H](/C=C(\c2ccc(C(F)(F)F)cc2)c2ccc(OC3CCCC3)c(=O)[nH]2)N1 [Example 4-168, 3-(Cyclopentyloxy)-6-{(E)-2-[(2R)-5-oxopyrrolidin-2-yl]-1-[4-(trifluoromethyl)phenyl]ethenyl}pyridin-2(1H)-one] | 500 to 3000 nM
7 | O=C1CC[C@H](/C=C(\c2ccc(Cl)cc2)c2ccc(OCCCO)c(=O)[nH]2)N1 [Example 4-169, 6-{(E)-1-(4-Chlorophenyl)-2-[(2R)-5-oxopyrrolidin-2-yl]ethenyl}-3-(3-hydroxypropoxy)pyridin-2(1H)-one] | 3000 to 10000 nM
8 | O=C1CC[C@H](/C=C(\c2ccc(C(F)(F)F)cc2)c2ccc(OCCCO)c(=O)[nH]2)N1 [Example 4-170, 3-(3-Hydroxypropoxy)-6-{(E)-2-[(2R)-5-oxopyrrolidin-2-yl]-1-[4-(trifluoromethyl)phenyl]ethenyl}pyridin-2(1H)-one] | 3000 to 10000 nM
9 | CC(C)(CO)COc1ccc(/C(=C/[C@H]2CCC(=O)N2)c2ccc(C(F)(F)F)cc2)[nH]c1=O [Example 4-171, 3-(3-Hydroxy-2,2-dimethylpropoxy)-6-{(E)-2-[(2R)-5-oxopyrrolidin-2-yl]-1-[4-(trifluoromethyl)phenyl]ethenyl}pyridin-2(1H)-one] | 3000 to 10000 nM
10 | O=C1CC[C@H](/C=C(\c2ccc(C(F)(F)F)cn2)c2ccc(C3CC3)c(=O)[nH]2)N1 [Example 4-172, 3-Cyclopropyl-6-{(Z)-2-[(2R)-5-oxopyrrolidin-2-yl]-1-[5-(trifluoromethyl)pyridin-2-yl]ethenyl}pyridin-2(1H)-one] | 500 to 3000 nM
11 | CC(C)(C)c1ccc(/C(=C\[C@H]2CCC(=O)N2)c2ccc(Oc3ccccc3)c(=O)[nH]2)cc1 [Example 4-185, 6-{(E)-1-(4-tert-Butylphenyl)-2-[(2R)-5-oxopyrrolidin-2-yl]ethenyl}-3-phenoxypyridin-2(1H)-one] | 10 to 500 nM
12 | CC(C)(C)c1ccc(/C(=C\[C@H]2CCC(=O)N2)c2cccc(=O)[nH]2)cc1 [Example 4-186, 6-{(E)-1-(4-tert-Butylphenyl)-2-[(2R)-5-oxopyrrolidin-2-yl]ethenyl}pyridin-2(1H)-one] | 500 to 3000 nM
13 | Cc1ccc(Oc2ccc(/C(=C/[C@H]3CCC(=O)N3)c3ccc(C(C)(C)C)cc3)[nH]c2=O)cc1 [Example 4-187, 6-{(E)-1-(4-tert-Butylphenyl)-2-[(2R)-5-oxopyrrolidin-2-yl]ethenyl}-3-(4-methylphenoxy)pyridin-2(1H)-one] | 500 to 3000 nM
14 | CC(C)(C)c1ccc(/C(=C\[C@H]2CCC(=O)N2)c2ccc(Oc3ccc(Cl)cc3)c(=O)[nH]2)cc1 [Example 4-188, 6-{(E)-1-(4-tert-Butylphenyl)-2-[(2R)-5-oxopyrrolidin-2-yl]ethenyl}-3-(4-chlorophenoxy)pyridin-2(1H)-one] | 500 to 3000 nM
15 | CC(C)(C)c1ccc(/C(=C\[C@H]2CCC(=O)N2)c2ccc(Oc3ccc(C(F)(F)F)cc3)c(=O)[nH]2)cc1 [Example 4-189, 6-{(E)-1-(4-tert-Butylphenyl)-2-[(2R)-5-oxopyrrolidin-2-yl]ethenyl}-3-[4-(trifluoromethyl)phenoxy]pyridin-2(1H)-one] | 500 to 3000 nM
16 | CC(C)(C)c1ccc(/C(=C\[C@H]2CCC(=O)N2)c2ccc(CCCCO)c(=O)[nH]2)cc1 [Example 4-190, 6-{(E)-1-(4-tert-Butylphenyl)-2-[(2R)-5-oxopyrrolidin-2-yl]ethenyl}-3-(4-hydroxybutyl)pyridin-2(1H)-one] | 10 to 500 nM
17 | CN(C)CCCCc1ccc(/C(=C/[C@H]2CCC(=O)N2)c2ccc(C(C)(C)C)cc2)[nH]c1=O [Example 4-191, 6-{(E)-1-(4-tert-Butylphenyl)-2-[(2R)-5-oxopyrrolidin-2-yl]ethenyl}-3-[4-(dimethylamino)butyl]pyridin-2(1H)-one] | 500 to 3000 nM

Further lines, results first:

Row | EC50 | SMILES
18 | 500 to 3000 nM | CC(C)Oc1ccc(/C(=C/[C@H]2CCC(=O)N2)c2ccc(C(C)(C)C)cc2)[nH]c1=O [Example 4-166, 6-{(E)-1-(4-tert-Butylphenyl)-2-[(2R)-5-oxopyrrolidin-2-yl]ethenyl}-3-(propan-2-yloxy)pyridin-2(1H)-one]
19 | 500 to 3000 nM | CC(C)(C)c1ccc(/C(=C\[C@H]2CCC(=O)N2)c2ccc(N)c(=O)[nH]2)cc1 [Example 4-173, 3-Amino-6-{(E)-1-(4-tert-butylphenyl)-2-[(2R)-5-oxopyrrolidin-2-yl]ethenyl}pyridin-2(1H)-one]
20 | 10 to 500 nM | CN(C)c1ccc(/C(=C/[C@H]2CCC(=O)N2)c2ccc(C(C)(C)C)cc2)[nH]c1=O [Example 4-174, 6-{(E)-1-(4-tert-Butylphenyl)-2-[(2R)-5-oxopyrrolidin-2-yl]ethenyl}-3-(dimethylamino)pyridin-2(1H)-one]
21 | 500 to 3000 nM | CC(=O)c1ccc(/C(=C/[C@H]2CCC(=O)N2)c2ccc(C(C)(C)C)cc2)[nH]c1=O [Example 4-175, 3-Acetyl-6-{(E)-1-(4-tert-butylphenyl)-2-[(2R)-5-oxopyrrolidin-2-yl]ethenyl}pyridin-2(1H)-one]
22 | 10 to 500 nM | CCc1ccc(/C(=C/[C@H]2CCC(=O)N2)c2ccc(C(C)(C)C)cc2)[nH]c1=O [Example 4-176, 6-{(E)-1-(4-tert-Butylphenyl)-2-[(2R)-5-oxopyrrolidin-2-yl]ethenyl}-3-ethylpyridin-2(1H)-one]
23 | 10 to 500 nM | CC(C)(C)c1ccc(/C(=C\[C@H]2CCC(=O)N2)c2ccc(Br)c(=O)[nH]2)cc1 [Example 4-177, 3-Bromo-6-{(E)-1-(4-tert-butylphenyl)-2-[(2R)-5-oxopyrrolidin-2-yl]ethenyl}pyridin-2(1H)-one]
24 | 10 to 500 nM | CC(C)(C)c1ccc(/C(=C\[C@H]2CCC(=O)N2)c2ccc(-c3ccccc3)c(=O)[nH]2)cc1 [Example 4-178, 6-{(E)-1-(4-tert-Butylphenyl)-2-[(2R)-5-oxopyrrolidin-2-yl]ethenyl}-3-phenylpyridin-2(1H)-one]
25 | 10 to 500 nM | CC(C)(C)c1ccc(/C(=C\[C@H]2CCC(=O)N2)c2ccc(-c3ccncc3)c(=O)[nH]2)cc1 [Example 4-179, 6-{(E)-1-(4-tert-Butylphenyl)-2-[(2R)-5-oxopyrrolidin-2-yl]ethenyl}-3,4′-bipyridin-2(1H)-one]
26 | 10 to 500 nM | CC(C)(C)c1ccc(/C(=C\[C@H]2CCC(=O)N2)c2ccc(-c3cccnc3)c(=O)[nH]2)cc1 [Example 4-180, 6-{(E)-1-(4-tert-Butylphenyl)-2-[(2R)-5-oxopyrrolidin-2-yl]ethenyl}-3,3′-bipyridin-2(1H)-one]
27 | 500 to 3000 nM | Cc1nc(C)c(-c2ccc(/C(=C/[C@H]3CCC(=O)N3)c3ccc(C(C)(C)C)cc3)[nH]c2=O)s1 [Example 4-181, 6-{(E)-1-(4-tert-Butylphenyl)-2-[(2R)-5-oxopyrrolidin-2-yl]ethenyl}-3-(2,4-dimethyl-1,3-thiazol-5-yl)pyridin-2(1H)-one]
28 | 500 to 3000 nM | CC(C)Cn1cc(-c2ccc(/C(=C/[C@H]3CCC(=O)N3)c3ccc(C(C)(C)C)cc3)[nH]c2=O)cn1 [Example 4-182, 6-{(E)-1-(4-tert-Butylphenyl)-2-[(2R)-5-oxopyrrolidin-2-yl]ethenyl}-3-[1-(2-methylpropyl)-1H-pyrazol-4-yl]pyridin-2(1H)-one]
29 | 10 to 500 nM | Cn1cc(-c2ccc(/C(=C/[C@H]3CCC(=O)N3)c3ccc(C(C)(C)C)cc3)[nH]c2=O)cn1 [Example 4-183, 6-{(E)-1-(4-tert-Butylphenyl)-2-[(2R)-5-oxopyrrolidin-2-yl]ethenyl}-3-(1-methyl-1H-pyrazol-4-yl)pyridin-2(1H)-one]
30 | 10 to 500 nM | CC(C)(C)c1ccc(/C(=C\[C@H]2CCC(=O)N2)c2ccc(-c3cnoc3)c(=O)[nH]2)cc1 [Example 4-184, 6-{(E)-1-(4-tert-Butylphenyl)-2-[(2R)-5-oxopyrrolidin-2-yl]ethenyl}-3-(1,2-oxazol-4-yl)pyridin-2(1H)-one]
